According to patent US10906897B2, “Microbiocidal heterobicyclic derivatives” (priority 2015, dated 2021):

What was measured:
[1] = tested on: Glomerella lagenarium (Colletotrichum lagenarium); assay: Glomerella lagenarium (Colletotrichum lagenarium) / liquid culture (Anthracnose); assay type: cell-based; conditions: Colletotrichum orbiculare, growth inhibition photometrically 3-4 days after application, compared to untreated control
Sclerotinia sclerotiorum = Sclerotinia sclerotiorum / liquid culture (cottony rot); conditions: read-out: control of Sclerotinia sclerotiorum
Procedure: Sclerotinia sclerotiorum/Liquid Culture (Cottony Rot)
Mycelia fragments of a newly grown liquid culture of the fungus are directly mixed into 5 nutrient broth (Vogels broth). After placing a (DMSO) solution of test compound into a microtiter plate (96-well format) the nutrient broth containing the fungal material is added. The test plates are incubated at 24° C. and the inhibition of growth is determined photometrically 3-4 days after application.

[2] = tested on: Magnaporthe grisea (Pyricularia oryzae); assay: microbe, parasite or virus in culture; assay type: cell-based; conditions: read-out: control of Magnaporthe grisea
[3] = tested on: Mycosphaerella graminicola (Septoria tritici); assay: Mycosphaerella graminicola (Septoria tritici) / liquid culture (Septoria blotch); assay type: cell-based; conditions: Zymoseptoria tritici, growth inhibition photometrically 4-5 days after application, compared to untreated control
Gaeumannomyces graminis = Gaeumannomyces graminis / liquid culture (Take-all of cereals); assay type: cell-based; conditions: growth inhibition photometrically 4-5 days after application, compared to untreated control
[4] = tested on: Botryotinia fuckeliana (Botrytis cinerea); assay: Botryotinia fuckeliana (Botrytis cinerea) / liquid culture (Gray mould); assay type: cell-based; conditions: growth inhibition photometrically 3-4 days after application, compared to untreated control
Fusarium culmorum = assay: microbe, parasite or virus in culture; assay type: cell-based; conditions: read-out: control of Fusarium culmorum
[5] = tested on: Magnaporthe grisea (Pyricularia oryzae); assay: whole plant or invertebrate; assay type: in vivo; conditions: foliar, read-out: control of Magnaporthe grisea
[6] = tested on: Monographella nivalis (Microdochium nivale); assay: Monographella nivalis (Microdochium nivale) / liquid culture (foot rot cereals); assay type: cell-based; conditions: 96 h, growth inhibition photometrically 4-5 days after application, compared to untreated control

Compound	inhibition of growth at 20 ppm [1]	inhibition of growth at 20 ppm (Sclerotinia sclerotiorum)	inhibition of growth at 60 ppm [2]	inhibition of growth at 20 ppm [3]	inhibition of growth at 20 ppm (Gaeumannomyces graminis)	inhibition of growth at 20 ppm [4]	inhibition of growth at 20 ppm (Fusarium culmorum)	melting point	pest or weed control at 200 ppm [5]	inhibition of growth at 20 ppm [6]
CC1(C)N=C(c2cnn3cc(Cl)ccc23)c2ccccc2C1(F)F [Compound E-87, 1-(6-chloropyrazolo[1,5-a]pyridin-3-yl)-4,4-difluoro-3,3-dimethyl-isoquinoline]	≥ 80%	≥ 80%	≥ 80%	≥ 80%	≥ 80%	≥ 80%	≥ 80%	113 to 118 °C	≥ 50%	
Cc1ccc2c(C3=NC(C)(C)C(F)(F)c4ccccc43)cnn2c1 [Compound E-83, 4,4-difluoro-3,3-dimethyl-1-(6-methylpyrazolo[1,5-a]pyridin-3-yl)isoquinoline]	≥ 80%	≥ 80%	≥ 80%	≥ 80%	≥ 80%	≥ 80%	≥ 80%	105 to 107 °C	≥ 50%	≥ 80%
CCc1ccc2c(C3=NC(C)(C)C(F)(F)c4ccccc43)cnn2c1 [Compound E-86, 1-(6-ethylpyrazolo[1,5-a]pyridin-3-yl)-4,4-difluoro-3,3-dimethyl-isoquinoline]	≥ 80%	≥ 80%	≥ 80%	≥ 80%	≥ 80%	≥ 80%	≥ 80%		≥ 50%	
Cc1c(F)ccc2c(C3=NC(C)(C)C(F)(F)c4ccccc43)cnn12 [Compound E-88, 4,4-difluoro-1-(6-fluoro-7-methyl-pyrazolo[1,5-a]pyridin-3-yl)-3,3-dimethyl-isoquinoline]	≥ 80%	≥ 80%	≥ 80%	≥ 80%	≥ 80%	≥ 80%	≥ 80%	115 to 118 °C	≥ 50%	≥ 80%
CC1(C)N=C(c2cnn3cc(Br)ccc23)c2ccccc2C1(F)F [Compound E-81, 1-(6-bromopyrazolo[1,5-a]pyridin-3-yl)-4,4-difluoro-3,3-dimethyl-isoquinoline]	≥ 80%	≥ 80%	≥ 80%	≥ 80%	≥ 80%	≥ 80%	≥ 80%	127 to 129 °C	≥ 50%	≥ 80%
